# Patent publication US20170273948A1, “USE OF SIGMA RECEPTOR LIGANDS IN OSTEOARTHRITIS” (LABORATORIOS DEL DR ESTEVE S.A., priority 2014, published 2017)
# Counter-ions that a name gives are not always drawn.
# Columns and labels:
# [1] = system: osteoarthritic-induced allodynia (MIA-induced osteoarthritis); assay: MIA-induced osteoarthritis in rats: mechanical (tactile) allodynia, paw withdrawal threshold to von Frey filaments; type: in vivo, rat; conditions: for progressive amelioration of the basal pain (PRE) found before daily treatments: Example B, i.p. b.i.d., oxycodone 2.5 mg/kg; for progressive amelioration of the basal pain (PRE) found before daily treatments / analgesia (POST): Ex.3 40 mg/kg; for analgesia (POST): day 1, single treatment, i.p., 30 min after treatment, Oxycodone 2.5 mg/kg; for analgesic effect (POST): day 29, repeated daily treatments i.p. b.i.d., Ex. 3 40 mg/kg after four weeks, Oxycodone 2.5 mg/kg after three weeks
# [2] = system: osteoarthritic-induced allodynia (MIA-induced osteoarthritis); assay: as above; type: in vivo, rat; conditions: for progressive amelioration of the basal pain (PRE) found before daily treatments: Example A, three weeks i.p. b.i.d.; for progressive amelioration of the basal pain (PRE) found before daily treatments / analgesia (analgesic effect, POST) / analgesic effect (POST): example 1 60 mg/kg, Tramadol 20 mg/kg; for analgesia (analgesic effect, POST): day 1, single treatment, i.p.; for analgesia (analgesic effect, POST) / analgesic effect (POST): 30 min after treatment; for pain after treatment discontinuation (wash out): versus initial situation; for analgesic effect (POST): day 22, after three weeks of treatment i.p. b.i.d.
# Description: Male Sprague-Dawley rats (Harlan, San Pietro Nastisone, Udine, Italia), weighing 50-75 g on arrival at the laboratory, were used. Animals were allowed to acclimate for one week in groups of five per cage in a room with constant temperature (21±1° C.) and relative humidity (60%), and free access to food and water ad libitum. Automatic light-on and -off allowed alternate light-dark cycles of 12 h:12 h, with light-on at 7:00 a.m. Procedures were approved by the Committee on Animal Research Ethics of ESTEVE and conformed to the guidelines of the IASP (Zimmermann, 1983). In particular, the duration of the experiments was kept as short as possible and the number of rats used was minimized.
# Osteoarthritis in rats was induced by intraarticular (i.a.) injection of monosodium iodoacetate (MIA) in the right knee joint, essentially as described by Dunham et al. (1993). After one week of acclimation, rats were briefly anesthetized with isoflurane (5% in 02 at 600 cc/min; IsoFlo®, Veterinaria ESTEVE, MI, Italy) until lack of response to a toe pinch. Surgical area was swabbed with chlorohexidine and alcohol, then a single injection of MIA (50 μl of a 40 mg/ml solution in 0.9% saline, i.e. equal to 2 mg/injection) was delivered using a 28-gauge needle inserted into the joint space of the knee through the intra-patellar ligament, by a gentle flexion of the knee. Sham animals received, in parallel, an equal volume of 0.9% sterile saline.
# The MIA dose to obtain a prolonged, marked decrease in mechanical thresholds to von Frey filaments pressure was selected on the basis of a dose-response experiment (not shown). After recovery, animals were returned to their home cage.
# Rats […] to the test conditions beforehand were assigned into wire mesh bottom cylinders (transparent metacrylate, 300 mm high×200 mm diameter) and allowed to acclimatize prior the start of the experiment. Tactile allodynia was assessed by determination of the paw withdrawal threshold (PWT) to von Frey filaments stimulation, starting 1 to 15 grams, on the plantar surface of the hind paw. Each filament was applied 3 s until a withdrawal response occurred. A single response indicated a positive response. PWTs were assessed in both the inflamed (ipsilateral) and non-inflamed (contralateral) hind paw and expressed as grams. Control thresholds in the contralateral paw were established in a similar fashion. Nociceptive thresholds were measured prior to MIA injection (Day 0) then after 2 weeks (Day 14) in order to assess allodynia. Only rats with a significant decrease in the minimal pressure (threshold) to trigger ipsilateral versus contralateral hindpaw withdrawal were included in the pharmacological groups; non-responders (noninjured animals) were considered an exclusion criteria. Each animal was used in only one experiment, after which it was sacrificed by CO2.
# OA was induced by MIA injection at day −14 in the intra-patellar ligament of the right hindpaw. Sham animals received, in parallel, 50 μl of sterile saline solution. Two weeks later, allodynic rats were characterized by a marked decrease in the minimal pressure (threshold) to trigger withdrawal of the ipsilateral hindpaw (vs. the contralateral hindpaw) when stimulated by using von Frey monofilaments. From day 1 rats received chronic treatment (i.p, b.i.d.) for three weeks (until day 22) with Example 1 or Tramadol for three weeks, and treatment was then discontinued and mechanical allodynia evaluated after 2 days and 7 days (days 24 and 29, respectively) (wash-out period) (FIG. 1).
# Two weeks after MIA injection into the knee, rats suffering from mechanical allodynia received a chronic treatment (3 weeks i.p, b.i.d.) with Example 1 (60 mg/kg, FIG. 2A) or Tramadol (20 mg/kg, FIG. 2B). […]
# [3] = target: sigma 1 (σ-1) site (Homo sapiens, UniProt Q99720); conditions: cited from earlier work
# Chain of sigma 1 (σ-1) site (Q99720 whole entry): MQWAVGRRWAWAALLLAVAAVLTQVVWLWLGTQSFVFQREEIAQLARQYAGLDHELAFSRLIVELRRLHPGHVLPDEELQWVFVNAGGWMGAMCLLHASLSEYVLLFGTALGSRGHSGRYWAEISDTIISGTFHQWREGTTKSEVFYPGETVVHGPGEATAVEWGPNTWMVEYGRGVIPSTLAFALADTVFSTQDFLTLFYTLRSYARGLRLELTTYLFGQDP
# [4] = target: sigma (σ-2) site (Homo sapiens, UniProt Q5BJF2); conditions: cited from earlier work
# Chain of sigma (σ-2) site (Q5BJF2 whole entry): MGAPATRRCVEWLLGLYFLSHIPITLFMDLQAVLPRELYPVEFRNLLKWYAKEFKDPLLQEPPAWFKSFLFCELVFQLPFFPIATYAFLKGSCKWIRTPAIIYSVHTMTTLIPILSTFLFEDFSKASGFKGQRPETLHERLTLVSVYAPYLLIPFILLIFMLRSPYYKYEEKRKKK
# [5] = listed as example 1, hydrochloride
compound,measurement,setting,value
"COc1ccc2c3c1O[C@H]1C(=O)CC[C@@]4(O)[C@@H](C2)N(C)CC[C@]314 [Oxycodone, reference compound]",progressive amelioration of the basal pain (PRE) found before daily treatments,[1],not
same,analgesia (POST),[1],~65%
same,analgesic effect (POST),[1],~15%
"Cc1cc(OCCN2CCOCC2)nn1-c1ccc2ccccc2c1 [Example 1, 4-{2-[5-Methyl-1-(naphthalen-2-yl)-1H-pyrazol-3-yloxy]ethyl}morpholine hydrochloride]",progressive amelioration of the basal pain (PRE) found before daily treatments,[2],progressively ameliorates the basal pain
same,"analgesia (analgesic effect, POST)",[2]; hydrochloride,~40%
same,"analgesia (analgesic effect, POST)",[2]; [5],around 40%
same,pain after treatment discontinuation (wash out),[2]; day 2 after discontinuation (day 24),still reduced
same,pain after treatment discontinuation (wash out),[2]; day 7 after discontinuation (day 29),went back to the initial situation
same,analgesic effect (POST),[2]; hydrochloride,90%
same,analgesic effect (POST),[2]; [5],around 90%
same,reduction of basal pain (PRE) found before daily treatments,"[2]; day 22, before first morning administration, example 1 60 mg/kg i.p. b.i.d.",80%
same,analgesic tolerance (loss of analgesic efficacy following repeated treatment),[2]; repeated treatment i.p. b.i.d. for three weeks,does not induce analgesic tolerance
SKF 10047,affinity for the sigma 1 (σ-1) site,[3],nanomolar
same,affinity for the sigma (σ-2) site,[4],micromolar
"COc1cccc(C2(O)CCCCC2CN(C)C)c1 (stereo not drawn) [Tramadol, reference compound]",progressive amelioration of the basal pain (PRE) found before daily treatments,[2],not
same,"analgesia (analgesic effect, POST)",[2],around 90%
same,analgesic effect (POST),[2],~10%
"CC(=O)N1CCN(CCOCc2ccn(-c3ccc(F)c(F)c3)n2)CC1 [Example 3, 1-(4-(2-((1-(3,4-difluorophenyl)-1H-pyrazol-3-yl)methoxy)ethyl)piperazin-1-yl)ethanone hydrochloride]",progressive amelioration of the basal pain (PRE) found before daily treatments,[1],progressively ameliorates the basal pain
same,analgesia (POST),[1],around 5%
same,analgesic effect (POST),[1],around 60%
same,reduction of basal pain (PRE) found before daily treatments,"[1]; day 30, Ex.3 40 mg/kg i.p. b.i.d.",65%
